Results from US10941157B2, “Pesticidal compositions and uses thereof” (Gilead Apollo, LLC, priority 2015, dated 2021).
≈ marks a conversion by molar mass, not a printed value.

Columns and labels:
Assay type in all cases: cell-based
Botrtyis cinerea (Bc) = test: In vitro pathogen growth inhibition assay, Bc; details: 48 h, ≥90% inhibition; 48 hours vs 2% DMSO control; read-out: Compound Concentration (ppm) sufficient for ≥90% inhibition of growth, Bc
Description: (§1) A growth inhibition assay was conducted to determine the ability of compounds to control the growth of fungal pathogens, such as Botrtyis cinerea (Bc), Collectotrichum graminicola (Cg), Diplodia maydis (Dm), Fusarium moniliforme (Fm), Fusarium virguliforme (Fv), Phytophthora capsici (Pc), Rhizoctonia solani (Rs), and Septoria tritici (St). The compounds listed in Table 1 were each dissolved in DMSO at 2.5 mg/ml to produce compound stock solutions (“stocks”). […] Negative controls on each plate included 2% DMSO, water, and a blank (media+2% DMSO). Fungal spores were isolated from previously sub-cultured plates of Botrtyis cinerea (Bc), Collectotrichum graminicola (Cg), Diplodia maydis (Dm), Fusarium moniliforme (Fm), Fusarium virguliforme (Fv), Phytophthora capsici (Pc), and Septoria tritici (St). The isolated spores were diluted to individual concentrations with a 17% V8 liquid media. For Rhizoctonia solani (Rs), 1.5 mm mycelial plugs were used in place of spores and ¼ Potato Dextrose Broth (PDB) was used for dilution. The spore concentrations and plug sizes were based on growth curves generated at 48 hours for each pathogen. In a second 96-well plate, the spores or mycelial plugs, media, diluted compound solutions, and controls were combined. Once the compound was added, a true final concentration of compound in each well was measured by an OD600 reading, which adjusted for any compound precipitation that might have occurred in the well. Plate readings were repeated at both 24 and 48 hours. The blank negative control was used as a background subtraction. Additional visual ratings were performed at both 24 and 48 hours for checking on precipitation and confirming efficacy. […] Both tables list the concentration of each compound that was sufficient to ≥90% inhibition of growth for each of the fungal pathogens listed above. In addition, some of compounds were tested in a yeast growth inhibition assay for Saccharomyces cerevisiae (Sc). Table 2 lists the concentration of the tested compound that was sufficient to ≥75% inhibition of Saccharomyces cerevisiae (Sc).

[1] = system: Collectotrichum graminicola (Cg); test: In vitro pathogen growth inhibition assay, Cg; details: 48 h, ≥90% inhibition; 48 hours vs 2% DMSO control; read-out: Compound Concentration (ppm) sufficient for ≥90% inhibition of growth, Cg
Description: as §1

Diplodia maydis (Dm) = test: In vitro pathogen growth inhibition assay, Dm; details: Stenocarpella maydis, 48 h, ≥90% inhibition; 48 hours vs 2% DMSO control; read-out: Compound Concentration (ppm) sufficient for ≥90% inhibition of growth, Dm
Description: as §1

[2] = system: Fusarium moniliforme (Fm); test: In vitro pathogen growth inhibition assay, Fm; details: Fusarium verticillioides; ≥90% inhibition; 48 hours vs 2% DMSO control; read-out: Compound Concentration (ppm) sufficient for ≥90% inhibition of growth, Fm
Description: as §1

[3] = system: Fusarium virguliforme (Fv); test: In vitro pathogen growth inhibition assay, Fv; details: ≥90% inhibition, 48 hours vs 2% DMSO control, read-out: Compound Concentration (ppm) sufficient for ≥90% inhibition of growth, Fv
Description: as §1

[4] = system: Phytophthora capsici (Pc); test: In vitro pathogen growth inhibition assay, Pc; details: 48 h, ≥90% inhibition, 48 hours vs 2% DMSO control, read-out: Compound Concentration (ppm) sufficient for ≥90% inhibition of growth, Pc
Description: as §1

Rhizoctonia solani (Rs) = test: In vitro pathogen growth inhibition assay, Rs (mycelial plugs); details: Rhizoctonia solani, 48 h, ≥90% inhibition; mycelial plugs; 48 hours vs 2% DMSO control; read-out: Compound Concentration (ppm) sufficient for ≥90% inhibition of growth, Rs
Description: as §1

Septoria tritici (St) = test: In vitro pathogen growth inhibition assay, St; details: Zymoseptoria tritici, 48 h, ≥90% inhibition; 48 hours vs 2% DMSO control; read-out: Compound Concentration (ppm) sufficient for ≥90% inhibition of growth, St
Description: as §1

| IC90 (Botrtyis cinerea (Bc)) | IC90 [1] | IC90 (Diplodia maydis (Dm)) | IC90 [2] | IC90 [3] | IC90 [4] | IC90 (Rhizoctonia solani (Rs)) | IC90 (Septoria tritici (St)) | SMILES |
| --- | --- | --- | --- | --- | --- | --- | --- | --- |
| 0.4 µg/mL (≈ 0.654 µM) | 2 µg/mL (≈ 3.27 µM) | 0.4 µg/mL (≈ 0.654 µM) | 0.08 µg/mL (≈ 0.131 µM) | 0.4 µg/mL (≈ 0.654 µM) | > 50 µg/mL | 0.4 µg/mL (≈ 0.654 µM) | > 10 µg/mL | COc1ccc(F)cc1[C@H](Cn1c(=O)n(C(C)(C)C(=O)N2CCCCC2)c(=O)c2c(C)c(-n3cccn3)sc21)OC(C)C [Compound I-002] |
| 0.4 µg/mL (≈ 0.636 µM) | 2 µg/mL (≈ 3.18 µM) | ≥ 0.4 µg/mL | 0.08 µg/mL (≈ 0.127 µM) | 0.4 µg/mL (≈ 0.636 µM) | > 50 µg/mL | 10 µg/mL (≈ 15.9 µM) | > 10 µg/mL | COc1ccc(F)cc1[C@H](Cn1c(=O)n(C(C)(C)C(=O)NC(C)C)c(=O)c2c(C)c(-c3ncco3)sc21)OC1CCOCC1 [Compound I-015] |
| 0.4 µg/mL (≈ 0.653 µM) | 2 µg/mL (≈ 3.26 µM) | 0.4 µg/mL (≈ 0.653 µM) | 0.08 µg/mL (≈ 0.131 µM) | 0.4 µg/mL (≈ 0.653 µM) | > 50 µg/mL | 0.4 µg/mL (≈ 0.653 µM) | > 10 µg/mL | COc1ccc(F)cc1[C@H](Cn1c(=O)n(C(C)(C)C(=O)N2CCCCC2)c(=O)c2c(C)c(-c3ncco3)sc21)OC(C)C [Compound I-016] |
| 0.4 µg/mL (≈ 0.668 µM) | 0.08 µg/mL (≈ 0.134 µM) | ≥ 0.08 µg/mL | 0.08 µg/mL (≈ 0.134 µM) | 0.4 µg/mL (≈ 0.668 µM) | > 50 µg/mL | 0.4 µg/mL (≈ 0.668 µM) | > 10 µg/mL | COc1ccc(F)cc1[C@H](Cn1c(=O)n(C(C)(C)C(=O)N2CCCC2)c(=O)c2c(C)c(-c3ncco3)sc21)OC(C)C [Compound I-017] |
| 0.4 µg/mL (≈ 0.682 µM) | 0.4 µg/mL (≈ 0.682 µM) | 0.4 µg/mL (≈ 0.682 µM) | 0.08 µg/mL (≈ 0.136 µM) | 0.4 µg/mL (≈ 0.682 µM) | > 50 µg/mL | 0.08 µg/mL (≈ 0.136 µM) | > 10 µg/mL | COc1ccc(F)cc1[C@H](Cn1c(=O)n(C(C)(C)C(=O)NC(C)C)c(=O)c2c(C)c(-c3ncco3)sc21)OC(C)C [Compound I-018] |
| ≥ 0.4 µg/mL | ≥ 0.4 µg/mL | ≥ 0.4 µg/mL | 0.08 µg/mL (≈ 0.14 µM) | 0.4 µg/mL (≈ 0.698 µM) | > 50 µg/mL | 0.08 µg/mL (≈ 0.14 µM) | > 10 µg/mL | CCNC(=O)C(C)(C)n1c(=O)c2c(C)c(-n3nccn3)sc2n(C[C@H](OC(C)C)c2cc(F)ccc2OC)c1=O [Compound I-019] |
| 0.4 µg/mL (≈ 0.651 µM) | 2 µg/mL (≈ 3.25 µM) | 2 µg/mL (≈ 3.25 µM) | 0.08 µg/mL (≈ 0.13 µM) | 0.4 µg/mL (≈ 0.651 µM) | > 50 µg/mL | 0.4 µg/mL (≈ 0.651 µM) | > 10 µg/mL | COc1ccc(F)cc1[C@H](Cn1c(=O)n(C(C)(C)C(=O)N2CCOCC2)c(=O)c2c(C)c(-n3nccn3)sc21)OC(C)C [Compound I-021] |
| 0.08 µg/mL (≈ 0.131 µM) | 0.08 µg/mL (≈ 0.131 µM) | 0.08 µg/mL (≈ 0.131 µM) | 0.08 µg/mL (≈ 0.131 µM) | ≥ 0.08 µg/mL | > 50 µg/mL | 0.08 µg/mL (≈ 0.131 µM) | ≥ 2 µg/mL | COc1ccc(F)cc1[C@H](Cn1c(=O)n(C(C)(C)C(=O)N2CCCCC2)c(=O)c2c(C)c(-n3nccn3)sc21)OC(C)C [Compound I-022] |
| 0.4 µg/mL (≈ 0.668 µM) | 0.08 µg/mL (≈ 0.134 µM) | 0.08 µg/mL (≈ 0.134 µM) | 0.08 µg/mL (≈ 0.134 µM) | ≥ 0.08 µg/mL | > 50 µg/mL | 0.08 µg/mL (≈ 0.134 µM) | > 10 µg/mL | COc1ccc(F)cc1[C@H](Cn1c(=O)n(C(C)(C)C(=O)N2CCCC2)c(=O)c2c(C)c(-n3nccn3)sc21)OC(C)C [Compound I-023] |
| 0.4 µg/mL (≈ 0.624 µM) | 2 µg/mL (≈ 3.12 µM) | ≥ 2 µg/mL | 0.08 µg/mL (≈ 0.125 µM) | 2 µg/mL (≈ 3.12 µM) | > 50 µg/mL | 0.4 µg/mL (≈ 0.624 µM) | > 50 µg/mL | COc1ccc(F)cc1[C@H](Cn1c(=O)n(C(C)(C)C(=O)NC(C)C)c(=O)c2c(C)c(-c3ncco3)sc21)OC1CCC(=O)CC1 [Compound I-024] |
